In PubChem BioAssay (NCI):
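Method: 48-hour compound exposure of cells in 96-well plates, five concentrations, linear interpolation of endpoints. GI50 = concentration required for 50% inhibition of growth. The concentration for full growth arrest is given as TGI.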

Key:
Experiment in all cases: NCI anticancer screen, dose series, 48 h
SF-539 CNS = tested on: SF-539 CNS
BT-549 breast = tested on: BT-549 breast
UO-31 renal = tested on: UO-31 renal
NCI-H226 lung = tested on: NCI-H226 lung
U251 CNS = tested on: U251 CNS
K-562 leukemia = tested on: K-562 leukemia
LOX IMVI melanoma = tested on: LOX IMVI melanoma
SK-MEL-28 melanoma = tested on: SK-MEL-28 melanoma
PC-3 prostate = tested on: PC-3 prostate
HT29 colon = tested on: HT29 colon
EKVX NSCLC = tested on: EKVX NSCLC
UACC-62 melanoma = tested on: UACC-62 melanoma
A549 NSCLC = tested on: A549 NSCLC
SK-MEL-2 melanoma = tested on: SK-MEL-2 melanoma
CCRF-CEM leukemia = tested on: CCRF-CEM leukemia
SF-268 CNS = tested on: SF-268 CNS
MDA-N = tested on: MDA-N
MDA-MB-231 breast = tested on: MDA-MB-231 breast

SMILES | TGI (SF-539 CNS) | TGI (BT-549 breast) | TGI (UO-31 renal) | TGI (NCI-H226 lung) | TGI (U251 CNS) | TGI (K-562 leukemia) | TGI (LOX IMVI melanoma) | TGI (SK-MEL-28 melanoma) | TGI (PC-3 prostate) | TGI (HT29 colon) | TGI (EKVX NSCLC) | TGI (UACC-62 melanoma) | TGI (A549 NSCLC) | TGI (SK-MEL-2 melanoma) | TGI (CCRF-CEM leukemia) | TGI (SF-268 CNS) | TGI (MDA-N) | TGI (MDA-MB-231 breast) | GI50 (SF-539 CNS) | GI50 (UACC-62 melanoma)
Cn1c(-c2cccs2)cc(-c2ccccc2)c1-c1cccs1 | > 100 µM | > 100 µM | > 100 µM | > 100 µM | > 100 µM | > 100 µM | > 100 µM | > 100 µM | > 100 µM | > 100 µM | > 100 µM | > 100 µM | 45.7 µM | > 100 µM | > 100 µM | > 100 µM | > 100 µM | > 100 µM |  | 
Cn1c(N)c(C(N)=O)[nH]c1=S | > 100 µM | > 100 µM | > 100 µM | > 100 µM | > 100 µM | > 100 µM | > 100 µM | > 100 µM | > 100 µM | > 100 µM | > 100 µM | > 100 µM | > 100 µM | > 100 µM | > 100 µM | > 100 µM | > 100 µM | > 100 µM |  | 
O=C1CS(=O)(=O)C(c2cccc(Oc3ccccc3)c2)N1c1cccc(Cl)c1 (configuration not stated) | 37.4 µM | 93.2 µM | > 100 µM | > 100 µM | 47.2 µM | 52.1 µM | 32.1 µM | > 100 µM | > 100 µM | > 100 µM | 61.9 µM | 29.4 µM | > 100 µM | 33.2 µM | > 100 µM | 76.7 µM | 49.2 µM | > 100 µM |  | 
CCCCCCNC(=O)c1cc(CCc2cc(O)ccc2O)ccc1O | 5.31 µM | 4.35 µM | 2.98 µM | 19.8 µM | 5.58 µM | 8.87 µM | 19.3 µM | 7.37 µM | 6.49 µM | 64.7 µM | 15.8 µM | 10.1 µM | 36.3 µM | 7.4 µM | > 100 µM | 9.9 µM | 9.54 µM | 5.8 µM | 2.18 µM | 3.26 µM
CC(C)(C)n1c(=O)[nH]n(C2NN=Cc3cccc4cccc2c34)c1=O (configuration not stated) | 45.1 µM | > 100 µM | 70.3 µM | > 100 µM | > 100 µM | 40.7 µM | > 100 µM | > 100 µM | > 100 µM | 45.9 µM | 68.8 µM | > 100 µM | 63.4 µM | > 100 µM | 63.6 µM | > 100 µM | 59.4 µM | > 100 µM |  | 
Cc1ncc([N+](=O)[O-])n1CCN(C)C(=O)CCCn1ccnc1[N+](=O)[O-] | > 100 µM | > 100 µM | > 100 µM | > 100 µM | > 100 µM | > 100 µM | > 100 µM | > 100 µM | > 100 µM | > 100 µM | > 100 µM | > 100 µM | > 100 µM | > 100 µM | > 100 µM | > 100 µM | > 100 µM | > 100 µM |  | 
N#CC(c1ccnc(Cl)n1)c1nc2ccccc2s1 (configuration not stated) | 15.1 µM | > 26 µM | 28.4 µM | > 47.4 µM | 13.3 µM | 76.2 µM | > 33.9 µM | > 100 µM | 26 µM | 10.3 µM | > 74.6 µM | 15.8 µM | 52.4 µM | 28.1 µM | 0.928 µM | > 63.6 µM | 12.9 µM | 12.3 µM |  | 
COC(=O)CC1C(COC(C)=O)OC(n2cc(C)c(=O)[nH]c2=O)C1OC(C)=O (configuration not stated) | > 100 µM | > 100 µM | > 100 µM | > 100 µM | > 100 µM | > 100 µM | > 100 µM | > 100 µM | > 100 µM | > 100 µM | > 100 µM | > 100 µM | > 100 µM | > 100 µM | > 100 µM | > 100 µM | > 100 µM | > 100 µM |  | 
O=C(c1ccco1)N(Cc1ccco1)C(=S)Nc1ccccc1 | 15.4 µM | 36.3 µM | 32.8 µM | > 100 µM | 91 µM | 40.8 µM | 27.1 µM | 33.8 µM | > 100 µM | 42.1 µM | > 96.5 µM | 37.1 µM | > 76.8 µM | 42.9 µM | 18.7 µM | 85.3 µM | 38.1 µM | 41.1 µM |  | 
Cc1ccc(Cc2n[nH]c(=O)n2/N=C\CC/C=N\n2c(Cc3ccc(C)cc3)n[nH]c2=O)cc1 | 24.9 µM | > 100 µM | > 100 µM | 65.3 µM | 53.7 µM | > 100 µM | > 100 µM | > 100 µM | > 100 µM | > 100 µM | > 100 µM | > 100 µM | > 100 µM | 80.5 µM | > 100 µM | 50.9 µM | > 100 µM | > 100 µM |  | 
